From patent US20230181509A1, “THE USE OF DIFFUSION ENHANCING COMPOUNDS FOR TREATMENT OF VIRAL AND BACTERIAL INDUCED RESPIRATORY DISEASE” (DIFFUSION PHARMACEUTICALS LLC, priority 2020, published 2023)
Read-outs that look alike come from different tables or passages of the source.

Legend:
[1] = cited from earlier work
[2] = after hemorrhagic shock in rats; cited from earlier work
[3] = cited from earlier work; remark: listed apart in the source
[4] = Solubility of TSC formulated with cyclodextrin and mannitol; type: physicochemical; conditions: formulated with a cyclodextrin and mannitol
From the text: A trans carotenoid such as TSC can be formulated with a cyclodextrin as noted above and a non-metabolized sugar such as mannitol (e.g. d-mannitol to adjust the osmotic pressure to be the same as that of blood). […] This solution can be added to isotonic saline or to other isotonic solutions in order to dilute it and still maintain the proper osmolality.

[5] = Absorption into the blood stream after intramuscular injection of TSC with gamma cyclodextrin; type: in vivo; conditions: injected intramuscularly, rats
From the text: The solutions need not be equal-molar.

[6] = Solubility of TSC in water with gamma-cyclodextrin; type: physicochemical; conditions: TSC and gamma-cyclodextrin

| Compound | diffusivity of oxygen through plasma ([1]; plasma) | diffusivity of oxygen in water [1] | whole-body oxygen consumption [2] | oxygen levels, arterial and tissue ([3]; hypoxemic states) | oxygen levels, arterial and tissue ([3]; normoxic states) | TSC concentration of solutions that can be made [4] | absorption into the blood stream [5] | TSC concentration reached in aqueous solution [6] |
| --- | --- | --- | --- | --- | --- | --- | --- | --- |
| CC(/C=C/C=C(\C)C(=O)[O-])=C\C=C\C=C(C)\C=C\C=C(/C)C(=O)[O-].[Na+].[Na+] [TSC, trans sodium crocetinate] | increases the diffusivity of oxygen through plasma | increase the diffusivity of oxygen in water | increase whole-body oxygen consumption | increases oxygen levels | does not | over 20 mg TSC/ml of solution | Absorption is quick | ≤ 44 milligrams of TSC per ml of solution |
| CC(/C=C/C=C(\C)C(=O)O)=C\C=C\C=C(C)\C=C\C=C(/C)C(=O)O [crocetin, reference compound] |  | increase the diffusivity of oxygen in water |  |  |  |  |  |  |
